Patent EP3079693B1 (priority 2013, dated 2015)

How the values were obtained:
[1] = molecular target: T1, influenza A RNA-dependent RNA polymerase (Influenza A virus, UniProt P03428+P03431+P03433); assay: cell-based
[2] = test system: constitutive gene expression; assay: Counter screen: separate reporter system with cell death-activated reporter construct (constitutive gene expression); conditions: for observed toxicity or efficacy in either assay tested: antiviral and counterscreen assay; for toxicity in antiviral and counterscreen assays: at 50uM, both antiviral and counterscreen assay
[3] = molecular target: T1, influenza A RNA-dependent RNA polymerase
[4] = test system: influenza A/Puerto Rico/8/34 (H1N1) virus; format: cell-based

| SMILES | IC50 [1] [µM] | observed toxicity or efficacy in either assay tested [2] | toxicity in antiviral and counterscreen assays [2] | toxicity in the reporter assay [3] | concentrations with significant antiviral activity [4] [µM] |
| --- | --- | --- | --- | --- | --- |
| COc1ccc(-c2cc3nc(C)c(C)c(N4CCCC4)n3n2)cc1OC [A0443, 2-(3,4-dimethoxyphenyl)-5,6-dimethyl-7-(pyrrolidin-1-yl)pyrazolo[1,5-a]pyrimidine] | > 50 | >50 µM (no observed toxicity or efficacy in either assay tested) | – | – | – |
| CCc1c(C)nc2cc(-c3cc(OC)cc(OC)c3)nn2c1NCCc1ccccc1 [A0527, 2-(3,5-dimethoxyphenyl)-6-ethyl-5-methyl-N-phenethylpyrazolo[1,5-a]pyrimidin-7-amine] | > 50 | >50 µM (no observed toxicity or efficacy in either assay tested) | – | – | – |
| COc1ccc(-c2cc3nc(C)cc(NCc4ccccc4)n3n2)cc1 [A0548, N-benzyl-2-(4-methoxyphenyl)-5-methylpyrazolo[1,5-a]pyrimidin-7-amine] | > 50 | >50 µM (no observed toxicity or efficacy in either assay tested) | – | – | – |
| CCc1c(C)nc2cc(-c3ccc(OC)c(OC)c3)nn2c1NCCc1ccc(OC)c(OC)c1 [A0438, N-(3,4-dimethoxyphenethyl)-2-(3,4-dimethoxyphenyl)-6-ethyl-5-methylpyrazolo[1,5-a]pyrimidin-7-amine] | > 10 | – | >10uM (toxic to both antiviral and counterscreen at 50uM) | – | – |
| CCc1c(C)nc2cc(-c3ccc(OC)c(OC)c3)nn2c1NCc1cc(OC)ccc1OC [A0526, N-(2,5-dimethoxybenzyl)-2-(3,4-dimethoxyphenyl)-6-ethyl-5-methylpyrazolo[1,5-a]pyrimidin-7-amine] | > 50 | >50 µM (no observed toxicity or efficacy in either assay tested) | – | – | – |
| COc1ccc(-c2c(C)nn3c(N4CCc5ccccc5C4)cc(C)nc23)cc1OC [A0550, 2-(3-(3,4-dimethoxyphenyl)-2,5-dimethylpyrazolo[1,5-a]pyrimidin-7-yl)-1,2,3,4-tetrahydroisoquinoline] | > 50 | >50 µM (no observed toxicity or efficacy in either assay tested) | – | – | – |
| COc1ccc(-c2cc3nc4c(c(NCc5ccccc5F)n3n2)CCCC4)cc1 [A0529, N-(2-fluorobenzyl)-2-(4-methoxyphenyl)-5,6,7,8-tetrahydropyrazolo[5,1-b]quinazolin-9-amine] | > 50 | >50 µM (no observed toxicity or efficacy in either assay tested) | – | – | – |
| COc1ccc(-c2cc3nc4c(c(NCCc5cccnc5)n3n2)CCC4)cc1OC [A0444, 2-(3,4-dimethoxyphenyl)-N-(2-(pyridin-3-yl)ethyl)-6,7-dihydro-5H-cyclopenta[d]pyrazolo[1,5-a]pyrimidin-8-amine] | > 10 | – | >10uM (toxic to both antiviral and counterscreen at 50uM) | – | – |
| COc1ccc(-c2cc3nccc(NCc4ccccc4OC)n3n2)cc1 [A0547, N-(2-methoxybenzyl)-2-(4-methoxyphenyl)pyrazolo[1,5-a]pyrimidin-7-amine] | > 50 | >50 µM (no observed toxicity or efficacy in either assay tested) | – | – | – |
| CCc1c(C)nc2cc(-c3cc(C)on3)nn2c1NCCc1ccccn1 [A0445, 6-ethyl-5-methyl-2-(5-methylisoxazol-3-yl)-N-(2-(pyridin-2-yl)ethyl)pyrazolo[1,5-a]pyrimidin-7-amine] | > 50 | >50 µM (no observed toxicity or efficacy in either assay tested) | – | – | – |
| COc1cc(OC)cc(-c2cc3nc(C)cc(NCC(C)c4ccccc4)n3n2)c1 (stereo not drawn) [A0525, 2-(3,5-dimethoxyphenyl)-5-methyl-N-(2-phenylpropyl)pyrazolo[1,5-a]pyrimidin-7-amine] | > 50 | >50 µM (no observed toxicity or efficacy in either assay tested) | – | – | – |
| COc1ccc(-c2cc3c(=O)[nH]nc(SCc4ccccc4Cl)n3n2)cc1OC [A0553, 7-(2-chlorobenzylthio)-2-(3,4-dimethoxyphenyl)pyrazolo[1,5-d][1,2,4]triazin-4(5H)-one] | > 50 | >50 µM (no observed toxicity or efficacy in either assay tested) | – | – | – |
| Cc1ccc(-c2cc3nc4c(c(NCCc5ccccn5)n3n2)CCC4)cc1 [A0437, N-(2-(pyridin-2-yl)ethyl)-2-p-tolyl-6,7-dihydro-5H-cyclopenta[d]pyrazolo[1,5-a]pyrimidin-8-amine] | > 50 | >50 µM (no observed toxicity or efficacy in either assay tested) | – | – | – |
| COc1ccc(-c2cc3c(=O)[nH]nc(SCc4ccc5c(c4)OCO5)n3n2)cc1OC [A0551, 7-(benzo[d][1,3]dioxol-5-ylmethylthio)-2-(3,4-dimethoxyphenyl)pyrazolo[1,5-d][1,2,4]triazin-4(5H)-one] | > 50 | >50 µM (no observed toxicity or efficacy in either assay tested) | – | – | – |
| CCc1c(C)nc2cc(-c3ccc(F)cc3)nn2c1NCCc1ccccn1 [A0436, 6-ethyl-2-(4-fluorophenyl)-5-methyl-N-(2-(pyridin-2-yl)ethyl)pyrazolo[1,5-a]pyrimidin-7-amine] | > 10 | – | >10uM (toxic to both antiviral and counterscreen at 50uM) | – | – |
| COc1ccc(-c2cc3nc(C)cc(NCc4ccc5c(c4)OCO5)n3n2)cc1 [A0530, N-(benzo[d][1,3]dioxol-5-ylmethyl)-2-(4-methoxyphenyl)-5-methylpyrazolo[1,5-a]pyrimidin-7-amine] | > 50 | >50 µM (no observed toxicity or efficacy in either assay tested) | – | – | – |
| Cc1cc(NCC(O)c2cccc(O)c2)n2nc(-c3cccc(F)c3)cc2n1 (stereo not drawn) [A0532, 3-(2-(2-(3-fluorophenyl)-5-methylpyrazolo[1,5-a]pyrimidin-7-ylamino)-1-hydroxyethyl)phenol] | > 50 | >50 µM (no observed toxicity or efficacy in either assay tested) | – | – | – |
| COc1ccc(-c2cc3nc(-c4ccccc4)cc(NCc4ccccc4C)n3n2)cc1OC [A0528, 2-(3,4-dimethoxyphenyl)-N-(2-methylbenzyl)-5-phenylpyrazolo[1,5-a]pyrimidin-7-amine] | > 50 | >50 µM (no observed toxicity or efficacy in either assay tested) | – | – | – |
| Fc1ccc(-c2cc3nc4c(c(NCCc5ccccn5)n3n2)CCCC4)cc1 [A0441, 2-(4-fluorophenyl)-N-(2-(pyridin-2-yl)ethyl)-5,6,7,8-tetrahydropyrazolo[5,1-b]quinazolin-9-amine] | > 10 | – | >10uM (toxic to both antiviral and counterscreen at 50uM) | – | – |
| CCc1c(C)nc2cc(-c3ccc(OC)c(OC)c3)nn2c1NCCc1ccc(F)cc1 [A0440, 2-(3,4-dimethoxyphenyl)-6-ethyl-N-(4-fluorophenethyl)-5-methylpyrazolo[1,5-a]pyrimidin-7-amine] | > 50 | >50 µM (no observed toxicity or efficacy in either assay tested) | – | – | – |
| Clc1ccc(-c2cc3nc4c(c(NCCc5ccccn5)n3n2)CCCC4)cc1 [A0442, 2-(4-chlorophenyl)-N-(2-(pyridin-2-yl)ethyl)-5,6,7,8-tetrahydropyrazolo[5,1-b]quinazolin-9-amine] | > 10 | – | >10uM (toxic to both antiviral and counterscreen at 50uM) | – | – |
| Cc1cc(NC(CO)C(O)c2ccccc2)n2nc(-c3cccc(F)c3)cc2n1 (stereo not drawn) [A0531, 2-(2-(3-fluorophenyl)-5-methylpyrazolo[1,5-a]pyrimidin-7-ylamino)-1-phenylpropane-1,3-diol] | > 50 | >50 µM (no observed toxicity or efficacy in either assay tested) | – | – | – |
| CCc1c(C)nc2cc(-c3ccc(OC)c(OC)c3)nn2c1NCCc1ccccc1C [A0439, 2-(3,4-dimethoxyphenyl)-6-ethyl-5-methyl-N-[2(2-methylphenyl)ethyl]pyrazolo[1,5-a]pyrimidin-7-amine] | ~5 | – | – | increased toxicity at higher doses due to precipitation | > 7.5 |
| COc1ccc(-c2c(C)nn3c(NCC(C)c4ccccc4)cc(C)nc23)cc1OC (stereo not drawn) [A0549, 3-(3,4-dimethoxyphenyl)-2,5-dimethyl-N-(2-phenylpropyl)pyrazolo[1,5-a]pyrimidin-7-amine] | > 50 | >50 µM (no observed toxicity or efficacy in either assay tested) | – | – | – |
| CCOc1ccc(-c2cc3c(SCc4cccc(C)c4)nccn3n2)cc1 [A0552, 2-(4-ethoxyphenyl)-4-(3-methylbenzylthio)pyrazolo[1,5-a]pyrazine] | > 50 | >50 µM (no observed toxicity or efficacy in either assay tested) | – | – | – |
